According to patent US12031137B2, “Compositions comprising SASP modulators and senescence attenuators and uses thereof for modulating cellular senescence” (RSEM, LIMITED PARTNERSHIP, priority 2016, dated 2024):

Experiments:
[1] = test system: mouse model of oxygen-induced retinopathy (OIR); experiment: SA-β-gal staining of retinas in oxygen-induced retinopathy (OIR) after intravitreal injection; type: in vivo; conditions: single intravitreal injection at P12, vs vehicle
Excerpt: (§1) O2-induced retinopathy. Mouse pups from different strains (C57Bl/6 WT, LyzM-Cre, LysM-Cre/IRE1^fl/fl, LysM-Cre/IRE1^+/+, IRE1^fl/fl and LysM-Cre/ROSA26EYFP^fl/fl), and their fostering mothers (CD1, Charles River) were exposed to 75% 02 from postnatal day 7 (P7) to day 12 and returned to room air. This model serves as a proxy to human ocular neovascular diseases such as ROP and diabetic retinopathy characterized by a late phase of destructive pathological angiogenesis (72, 73). Upon return to room air, hypoxia-driven neovascularization (NV) develops from P14 onwards (27). We enucleated eyes at different time points and dissected the retinas for mRNA, protein assays or flatmounting.
(§2) Senescence-associated β-galactosidase (SA-β-gal) assay. Senescence-associated β-galactosidase assays were carried out as described previously (57, 75)
Quantification of SA-β-gal in vivo. Senescence-associated β-galactosidase staining in flatmount retinas or sagittal eye sections were analyzed using Image J software as described in FIG. 14.
(§3) Intravitreal injections. P2, P10 or P12 C57BL/6 pups were anesthetized with 3.0% isoflurane and injected in the vitreous chamber with 0.5 μL of lentivirus (see “Lentivirus production”), recombinant SEMA3A (100 ng/μL), metformin (10 μg/μL) or Aflibercept (10 μg/uL) using a 10-μL Hamilton syringe fitted with a […] glass capillary tip. Approximately 254±11.0 ng/μL of lentivirus Sh_GFP and 323.3±15.3 ng/μL containing Sh_Sema3a, Lv.Cre (15.0 ng/mL), Lv.GFP (15.0 ng/mL) was injected. Virus titers were assessed with the p24 ELISA kit (ZeptoMetrix). The titers of the lentiviruses used were (in ng p24) LV.Sh_RNA IRE1α (8.52 ng/mL), and LV.Sh_RNA.GFP (8.47 ng/mL).

[2] = test system: mouse model of oxygen-induced retinopathy (OIR); experiment: Avascular area and pre-retinal neovascularization in OIR flatmount retinas; type: in vivo
[3] = test system: mouse model of oxygen-induced retinopathy (OIR); experiment: TUNEL staining of OIR retinas; type: in vivo; conditions: P14 OIR, intravitreal, vs vehicle-treated retinas
Excerpt: as §1, §3

[4] = test system: mouse model of oxygen-induced retinopathy (OIR); experiment: Immunoblot and RT-qPCR of OIR retinas after intravitreal injection; type: in vivo
Excerpt: as §1
(§4) Semi-quantitative and Real-time PCR analysis. We isolated RNA using the GenElute™ Mammalian Total RNA Miniprep Kit (Sigma) and performed a digestion with DNase I to prevent amplification of genomic DNA. We reversed transcribed the RNA using M-MLV reverse transcriptase and analyzed gene expression using SybrGreen™ in an ABI Biosystems Real-Time PCR machine. β-actin was used as a reference gene. […] We investigated the splicing of XBP-1 by incubating the XBP-1 semi-quantitative PCR product with 0.4 U/μL of PstI enzyme for 5 hrs at 37° C. followed by separation on 2.5% agarose gel.
as §3
(§5) Western blotting. We enucleated eyes at varying time points and rapidly dissected and homogenized retinas for assessment of retinal protein levels. Protein concentration from retinal homogenate and cell lysates were assessed by BCA assay (Sigma), and then 30 μg of protein analyzed for each condition by standard SDS-PAGE technique.

[5] = Mouse weight gain on systemic administration of metformin; type: in vivo
retina = experiment: Intravitreal injection of recombinant SEMA3A in mouse pups, senescence markers; type: in vivo; conditions: retina harvested at P5
Excerpt: FIG. 3A: Western blot analysis of SEMA3A protein expression level during OIR compared to normoxic controls at P10, P14, P17 and P21. β-actin is used as a loading control. FIG. 3B: Immunoblot analysis of SEMA3A protein levels during Ras-induced senescence in Mouse Embryonic Fibroblasts (MEFs). Cell lysates from MEFs retrovirally transduced with H-RasV12 oncogene or control empty vector harvested 14 days post-selection. FIG. 3C: SEMA3A transcript levels in human normal diploid fibroblasts (IMR90) retrovirally transduced with empty vector, MEK1 alone or MEK and human papillomavirus oncoproteins E6 and E7. […] FIG. 3I: HRMEC, retinal neurons (661W) and J774 (macrophages-like cells) stimulated with recombinant SEMA3A (100 ng/ml) or vehicle (CT) for 7 days, stained for SA-β-gal and quantification in FIG. 3J. […] Senescent cells were stained with SA-β-gal (right) and the level of secreted SEMA3A (S3A) protein in CM was evaluated by immunoblot (left). […] Senescence was evaluated after 7 days of treatment. FIG. 3M: Quantification of percentage of SA-β-gal positive cells treated as in (J). […]
Intravitreal injections. […] Virus titers were assessed with the p24 ELISA kit (ZeptoMetrix). […]
Western blotting. […] Protein concentration from retinal homogenate and cell lysates were assessed by BCA assay (Sigma), and then 30 μg of protein analyzed for each condition by standard SDS-PAGE technique.

[6] = test system: Human retinal microvascular endothelial cells (HRMECs); experiment: SEMA3A exposure of HRMECs (cell cycle FACS, ECIS, SA-β-gal); type: cell-based
Procedure: Flow Cytometry Analysis. Human retinal microvascular endothelial cells (HRMEC) cell cycle analysis (P1 biolegend) were performed according to the manufacturer's instructions and as previously reported (43). Briefly, HRMEC (1×10^6) were seeded in 6-well plates and incubated for 7 days with SEMA3A, 100 and 500 ng/ml. The samples were analyzed by flow cytometry. FACS was performed on a LSRII (BD Biosciences) device and data were analysed using FlowJo software (version 7.6.5).
Electric Cell-substrate Impedance Sensing (ECIS) Proliferation assay. Real-time analysis of trans-endothelial electric resistance was performed by plating 5000 HRMECs/ml were seeded onto 8W10E+ standard 8-well arrays (Applied BioPhysics, NY). Cells were allowed to grow leading to a capacitance of less than 10 nF. Cells were starved for 5 Hours with endothelial basal media (EBM-2, Lonza) and then treated with 100 ng/ml SEMA3A or vehicle (EBM-2) for 120 h and impedance was measured using an ECIS Zθ impedance instrument (Applied BioPhysics, NY). Measurements were taken for 120 h post treatment.
as §2
(§6) Preparation of conditioned media (CM). Human retinal microvascular endothelial cells (HRMECs), retinal neuron 661W photoreceptor cells and Mouse macrophages (J774A.1 cell line) were incubated for 7 days with recombinant SEMA3A (100 ng/μL), H2O2 (150 μM for 2 h) 48 h after transfection or not as indicated in each experiment. Supernatants were centrifuged and filtered and then frozen for subsequent use. For Western Blot on CM was concentrated using ultra centrifugal amicon filter unit from Millipore.

[7] = test system: J774 macrophage/monocyte cells; experiment: SEMA3A exposure of J774 macrophage/monocyte cells (SA-β-gal, immunoblot, RT-qPCR, γH2AX); type: cell-based, mouse
Procedure: as §4
For Protein localization, flatmounted retinas were incubated with different antibodies as indicated. For in vitro IF, cultured cells were plated on 0.1% gelatin-coated coverslips and serum-starved overnight and stimulated for 7 days with SEMA3A (100 ng/ml). Cells were washed briefly with cold PBS and fixed for 20 minutes in PBS containing 3.5% paraformaldehyde. Cells were rinsed with PBS and permeabilized with 0.3% Triton in PBS for 5 minutes. Fixed cells were blocked with 1% BSA and then incubated for 1 hour with primary antibodies in 0.1% BSA in PBS. Bound primary antibodies were visualized after 1 hour of incubation using Alexa Fluor secondary antibody. Coverslips were mounted using Fluoromount (Sigma-Aldrich) and analyzed by confocal microscope (Olympus confocal FV1000). Samples were viewed with a ×63/1.4 NA oil or ×30 objective. Images were assembled using Photoshop CS4 (Adobe Systems). For all antibodies used for immunohistochemistry, see Table 8.
as §2, §6, §5

retinal neurons (661W) = experiment: SEMA3A exposure of 661W retinal neuron cell line (SA-β-gal); type: cell-based; conditions: 100 ng/ml, 7 days
Procedure: as §2
as §6, with “([…]),” for “(J774A.1 cell line) were incubated for 7 days with recombinant SEMA3A (100 ng/μL),”

[8] = intravitreal injection at P12, P14 OIR retinas
[9] = HRMECs, 7 days, 100 and 500 ng/ml, FACS

Molecule: CN(C)C(=N)NC(=N)N [metformin, N,N-Dimethylimidodicarbonimidic diamide]
- SA-β-gal staining at P14 OIR [1]: significant decrease
- SA-β-gal staining at P17 OIR (cellular senescence) [1]: significant decrease
- benefits on pathological retinal angiogenesis ([2]; administered via systemic paths): did not show any benefits
- enhancement of vascular regeneration ([2]; intravitreal injection at P12, assessed at P17 OIR): more than 2 fold
- pathological neovascularization at P17 OIR ([2]; intravitreal injection at P12, vs vehicle): by half
- apoptosis in cells of the GCL (TUNEL) [3]: without aggravating apoptosis
- number of apoptotic cells in the INL layer (TUNEL) [3]: lowered
- Components of the VEGF signaling pathway (Vegf-a, Vegf-c, Vegfr-1, Vegfr-2 RT-qPCR) [4, 8]: not affected
- IL6, Cdkn1a, Cdkn2a and Sema3A by RT-qPCR [4, 8]: significant decrease
- NF-κB and IRE1α activation in retinas (immunoblot) ([4]; single intravitreal injection at P12, OIR P14 and P17): attenuated
- mouse weight gain [5]: interfered with mouse weight gain

B1: SEMA3A: Recombinant human Semaphorin 3A (from murine myeloma cell line, NS0) (R&D Systems) (protein)
chain: YQNGKNNVPRLKLSYKEMLESNNVITFNGLANSSSYHTFLLDEERSRLYVGAKDHIFSFDLVNIKDFQKIVWPVSYTRRDECKWAGKDILKECANFIKVLKAYNQTHLYACGTGAFHPICTYIEIGHHPEDNIFKLENSHFENGRGKSPYDPKLLTASLLIDGELYSGTAADFMGRDFAIFRTLGHHHPIRTEQHDSRWLNDPKFISAHLISESDNPEDDKVYFFFRENAIDGEHSGKATHARIGQICKNDFGGHRSLVNKWTTFLKARLICSVPGPNGIDTHFDELQDVFLMNFKDPKNPVVYGVFTTSSNIFKGSAVCMYSMSDVRRVFLGPYAHRDGPNYQWVPYQGRVPYPRPGTCPSKTFGGFDSTKDLPDDVITFARSHPAMYNPVFPMNNRPIVIKTDVNYQFTQIVVDRVDAEDGQYDVMFIGTDVGTVLKVVSIPKETWYDLEEVLLEEMTVFREPTAISAMELSTKQQQLYIGSTAGVAQLPLHRCDIYGKACAECCLARDPYCAWDGSACSRYFPTAKRRTRRQDIRNGDPLTHCSDLHHDNHHGHSPEERIIYGVENSSTFLECSPKSQRALVYWQFQRRNEERKEEIRVDDHIIRTDQGLLLRSLQQKDSGNYLCHAVEHGFIQTLLKVTLEVIDTEHLEELLHKDDDGDGSKTKEMSNSMTPSQKVWYRDFMQLINHPNLNTMDEFCEQVWKRDRKQRRQRPGHTPGNSNKWKHLQENKKGRNRRTHEFERAPRSV
modifications: left off: a dimerising Fc or GST
- SA-β-gal staining of retina sagittal cryosections (retina): marked augmentation
- p53, p16INK4a and IRE1α in retina (immunoblot) (retina): marked increase
- senescence (SA-β-gal) in HRMECs ([6]; 100 ng/ml, 7 days): induces senescence
- normal endothelial cell growth (ECIS) ([6]; HRMECs, 100 ng/ml): stunted
- S phase [6, 9]: significantly reducing
- cell cycle arrest in G0/G1 [6, 9]: increased
- senescence (SA-β-gal) in macrophage-like J774 cells ([7]; 100 ng/ml, 7 days): induces senescence
- expression of Pai1, Il6, Il1β, TGF-β and Tp53 (RT-qPCR) ([7]; J774, 100 ng/mL, 7 days): drove expression
- senescence-associated DNA-damage foci expressing γH2AX ([7]; J774, 100 ng/mL, 7 days): promoted
- IRE1α activation (p-IRE1α S724 immunoblot) ([7]; J774, sustained exposure, 100 ng/mL, 3 or 7 days): activated
- senescence (SA-β-gal) in 661W retinal neuron cell line (retinal neurons (661W)): induces senescence
